This is an account of results in US20240174692A1, “PYRIMIDINE AROMATIC RING COMPOUNDS” (Medshine Discovery Inc., priority 2021, published 2024).

The subject of data set [1] is plasma protein. Put plainly: Plasma protein binding (PPB), equilibrium dialysis, M plasma. It is filed as in vitro ADME, mouse. As to conditions: 2 μM, 4 hr dialysis. As to the method:
(§1) Assay procedure: 995 μL of blank plasma of various genera were weighed, and 5 μL of assay compound working solution (400 μM) or warfarin working solution (400 μM) was added so that the final concentrations of the assay compound and warfarin in plasma sample were each 2 μM. The samples were mixed thoroughly. The final concentration of DMSO (the organic phase) was 0.5%. 50 μL of the plasma samples of the assay compound and warfarin were pipetted to a sample receiving plate (in triplicate), and the corresponding volume of corresponding blank plasma or buffer was added immediately, so that the final volume in each sample well was 100 μL, wherein the volume ratio of plasma:dialysis buffer was 1:1. 500 μL of stop solution was then added to these samples. These samples were used as T0 samples for determination of recovery and stability. […] All samples were subjected to protein precipitation, and then analyzed by LC/MS/MS. Bound rate and recovery rate of protein were calculated using the following formulae: % Unbound=100*F/T % Bound=100−% Unbound, % Recovery=100*(F+T)/T0 (wherein F is the peak area ratio of the compound in the dialysate after 4 h of dialysis; T is the peak area ratio of the compound in the plasma after 4 h of dialysis; T0 is the peak area ratio of the compound in the plasma sample at time zero).
(In equilibrium dialysis only unbound substance equilibrates across the membrane.)

Data set [2] deals with plasma protein. Put plainly: Plasma protein binding (PPB), equilibrium dialysis, D plasma. It counts as in vitro ADME, dog. As to conditions: 2 μM, 4 hr dialysis. As to the method: as §1
The nature of data set [3]: Pharmacokinetic evaluation of compounds in mice. It is filed as in vivo, CD-1 mice. As to conditions: mouse, plasma; CD-1 male mice, IV, 1.03 mg/kg. As to the method: Purpose of assay: To assay the pharmacokinetic data of the compounds in CD-1 mice in vivo.
Compounds were mixed with vehicle 5% DMSO/95% (10% HP-β-CD aqueous solution), and the mixture was vortexed and sonicated to give 0.2 mg/mL-0.3 mg/mL clear solutions. CD-1 male mice aged 7 to 10 weeks were selected, and the candidate compound solution was administered intravenously. Whole blood was collected for a certain period of time to prepare the plasma. The drug concentration was analyzed by LC-MS/MS method and pharmacokinetic parameters were calculated by Phoenix WinNonlin software (Pharsight, USA).
Compounds were mixed with vehicle 5% DMSO/95% (10% HP-β-CD in water), and the mixture was vortexed and sonicated to give 1.6 mg/mL to 4.0 mg/mL clear solutions. CD-1 male mice aged 7 to 10 weeks were selected, and the candidate compound solution was orally administered. Whole blood was collected for a certain period of time to prepare plasma. The drug concentration was analyzed by LC-MS/MS method, and pharmacokinetic parameters were calculated by Phoenix WinNonlin software (Pharsight, USA).

The test system of data set [4] is plasma protein. Briefly: Plasma protein binding (PPB), equilibrium dialysis, C plasma. It is filed as in vitro ADME, monkey. Conditions: 2 μM, 4 hr dialysis. As to the method: as §1
For data set [5], the system named is plasma protein. Put plainly: Plasma protein binding (PPB), equilibrium dialysis, H plasma. It is filed as in vitro ADME, human. As to conditions: 2 μM, 4 hr dialysis. As to the method: as §1
The test system of data set [6] is plasma protein. Briefly: Plasma protein binding (PPB), equilibrium dialysis, R plasma. It counts as in vitro ADME, rat. Conditions: 2 μM, 4 hr dialysis. As to the method:
as §1

Broadly, the AUC(0-inf) is the area under the concentration-time curve extrapolated to infinity. A high value points to more exposure. The Vd is the apparent volume that relates the amount in the body to the concentration in plasma or blood. A low value points to confinement near the circulation. For orientation: clearance means a measure of how efficiently the substance is removed, as volume per time. Lower therefore signals a low capacity for elimination. As a reminder, the half-life is the time needed for the level to fall by half in the phase considered. Low readings indicate rapid decline, high ones slow decline. Regarding `C#Cc1c(F)ccc2cc(O)cc(-c3ccc4c(N5CC6CCC(C5)N6)nc(OC[C@@]56CCCN5C[C@H](F)C6)nc4c3F)c12` [Compound 010], in data set [1], the “Unbound PPB M” value worked out at 2.0%. For the same molecule, the “Unbound PPB D” value in data set [2] is 2.2%. In data set [3], the AUC(0-inf) amounted to 0.457 µM·h, the C0 stood at 712 nM, the Vd was found to be 25 L/kg and the clearance is 61.4 mL/min/kg. The half-life in data set [3] was 8.1 h. Besides, the “Unbound PPB C” value in data set [4] is 1.9%. Besides, in data set [5], the “Unbound PPB H” value is 2.9%. In addition, the “Unbound PPB R” value in data set [6] is 1.3%.
